{"source": "patent US20250302783A1", "about": "“SYMPATHETIC NERVE ACTIVATION AGENT AND SYMPATHETIC NERVE ACTIVATION COMPOSITION” (MARUZEN PHARMACEUTICALS CO., LTD., priority 2022, published 2025)", "type_in_all_cases": "in vivo, rat", "key": {"[1]": {"tested_on": "distal branches of the sympathetic nerve innervating the right epididymal white adipose tissue", "assay": "White adipose tissue sympathetic nerve activity (WAT-SNA) after intragastric administration, Test Example 1", "settings": "urethane-anesthetized male rats, measured for 60 minutes, FIG. 1", "procedure": "The effect of the intragastric administration of the compound represented by Structural Formula (1) on the activity of the sympathetic nerve innervating the white adipose tissue, the brown adipose tissue, the adrenal gland, or the liver was tested in the following manner. For the experiment, male Whistar rats (approximately 9 weeks old) each having a body weight of approximately 300 g were kept in a 24° C. thermostatic animal room for 1 week or longer with a 12-hour light-dark cycle (lighting from 8:00 to 20:00). On the day of the experiment, the rats were fasted for 3 hours, followed by anesthetizing with urethane. A cannula for intragastric administration was inserted into each of the rats, and then distal branches of the sympathetic nerve innervating the right epididymal white adipose tissue, the interscapular brown adipose tissue, the left adrenal gland, or the liver were lifted with a silver electrode, and the electrical activity thereof was measured. […] In addition, as a control, water serving as a solvent was intragastrically administered using the cannula at a dose of 0.5 mL/300 g of body weight, and the change in the neural activity of the distal branches of the above sympathetic nerves was measured electrophysiologically for 60 minutes. […]"}, "[2]": {"tested_on": "distal branches of the sympathetic nerve innervating the interscapular brown adipose tissue", "assay": "Brown adipose tissue sympathetic nerve activity (BAT-SNA) after intragastric administration, Test Example 1", "settings": "urethane-anesthetized male rats, measured for 60 minutes, FIG. 2", "procedure": "(§1) The effect of the intragastric administration of the compound represented by Structural Formula (1) on the activity of the sympathetic nerve innervating the white adipose tissue, the brown adipose tissue, the adrenal gland, or the liver was tested in the following manner. For the experiment, male Whistar rats (approximately 9 weeks old) each having a body weight of approximately 300 g were kept in a 24° C. thermostatic animal room for 1 week or longer with a 12-hour light-dark cycle (lighting from 8:00 to 20:00). On the day of the experiment, the rats were fasted for 3 hours, followed by anesthetizing with urethane. A cannula for intragastric administration was inserted into each of the rats, and then distal branches of the sympathetic nerve innervating the right epididymal white adipose tissue, the interscapular brown adipose tissue, the left adrenal gland, or the liver were lifted with a silver electrode, and the electrical activity thereof was measured. When the measurement value stabilized (at approximately 13:00), an aqueous solution of the compound represented by Structural Formula (1) (produced by Tokyo Chemical Industry Co., Ltd.) was intragastrically administered using the cannula at a dose of 15 mg/0.5 mL/300 g of body weight, 1.5 mg/0.5 mL/300 g of body weight, 0.15 mg/0.5 mL/300 g of body weight, or 0.015 mg/0.5 mL/300 g of body weight, and the change in the neural activity of the distal branches of the above sympathetic nerves was measured electrophysiologically for 60 minutes. In addition, as a control, water serving as a solvent was intragastrically administered using the cannula at a dose of 0.5 mL/300 g of body weight, and the change in the neural activity of the distal branches of the above sympathetic nerves was measured electrophysiologically for 60 minutes. […] The data of the neural activity was analyzed as the mean value of the firing rate per 5 seconds (pulse/5 s) every 5 minutes, and represented by a percentage relative to the mean value (a value at 0 minutes) at 5 minutes before the onset of stimulation being determined as 100%. […]"}, "[3]": {"tested_on": "distal branches of the sympathetic nerve innervating the left adrenal gland", "assay": "Adrenal sympathetic nerve activity (ASNA) after intragastric administration, Test Example 1", "settings": "urethane-anesthetized male rats, measured for 60 minutes, FIG. 3", "procedure": "The effect of the intragastric administration of the compound represented by Structural Formula (1) on the activity of the sympathetic nerve innervating the white adipose tissue, the brown adipose tissue, the adrenal gland, or the liver was tested in the following manner. For the experiment, male Whistar rats (approximately 9 weeks old) each having a body weight of approximately 300 g were kept in a 24° C. thermostatic animal room for 1 week or longer with a 12-hour light-dark cycle (lighting from 8:00 to 20:00). On the day of the experiment, the rats were fasted for 3 hours, followed by anesthetizing with urethane. A cannula for intragastric administration was inserted into each of the rats, and then distal branches of the sympathetic nerve innervating the right epididymal white adipose tissue, the interscapular brown adipose tissue, the left adrenal gland, or the liver were lifted with a silver electrode, and the electrical activity thereof was measured. When the measurement value stabilized (at approximately 13:00), an aqueous solution of the compound represented by Structural Formula (1) (produced by Tokyo Chemical Industry Co., Ltd.) was intragastrically administered using the cannula at a dose of 15 mg/0.5 mL/300 g of body weight, 1.5 mg/0.5 mL/300 g of body weight, 0.15 mg/0.5 mL/300 g of body weight, or 0.015 mg/0.5 mL/300 g of body weight, and the change in the neural activity of the distal branches of the above sympathetic nerves was measured electrophysiologically for 60 minutes. In addition, as a control, water serving as a solvent was intragastrically administered using the cannula at a dose of 0.5 mL/300 g of body weight, and the change in the neural activity of the distal branches of the above sympathetic nerves was measured electrophysiologically for 60 minutes. […] The data of the neural activity was analyzed as the mean value of the firing rate per 5 seconds (pulse/5 s) every 5 minutes, and represented by a percentage relative to the mean value (a value at 0 minutes) at 5 minutes before the onset of stimulation being determined as 100%. FIG. 3 illustrates, as a percentage with respect to the mean value (a value at 0 minutes) at 5 minutes before the onset of stimulation being determined as 100%, the result of the change in the neural activity of distal branches of the sympathetic nerves for the adrenal gland (adrenal sympathetic nerve activity, ASNA) when the aqueous solution including 15 mg, 1.5 mg, 0.15 mg, or 0.015 mg of the compound represented by Structural Formula (1) was intragastrically administered at a dose of 0.5 mL/300 g of body weight, or water serving as the solvent was intragastrically administered at a dose of 0.5 mL/300 g of body weight."}, "[4]": {"tested_on": "distal branches of the sympathetic nerve innervating the liver", "assay": "Hepatic sympathetic nerve activity (Hepatic-SNA) after intragastric administration, Test Example 1", "settings": "urethane-anesthetized male rats, measured for 60 minutes, FIG. 4", "procedure": "as §1"}, "[5]": {"settings": "1.5 mg/0.5 mL/300 g of body weight"}, "[6]": {"settings": "15 mg/0.5 mL/300 g of body weight"}, "[7]": {"settings": "0.15 mg/0.5 mL/300 g of body weight"}}}
{"smiles": "COc1cc(CCC(=O)O)ccc1O", "note": "[3-(4-hydroxy-3-methoxyphenyl) propionic acid]", "values": [{"measurement": "change in white adipose tissue sympathetic nerve activity (WAT-SNA) versus water control", "setting": "[1]; [5]", "result": "higher than the WAT-SNA value of the group to which water serving as the solvent was administered"}, {"measurement": "change in white adipose tissue sympathetic nerve activity (WAT-SNA) versus water control", "setting": "[1]; [6]", "result": "higher than the WAT-SNA value of the group to which water serving as the solvent was administered"}, {"measurement": "change in brown adipose tissue sympathetic nerve activity (BAT-SNA) versus water control", "setting": "[2]; [7]", "result": "higher than the BAT-SNA value of the group to which water serving as the solvent was administered"}, {"measurement": "change in brown adipose tissue sympathetic nerve activity (BAT-SNA) versus water control", "setting": "[2]; [5]", "result": "higher than the BAT-SNA value of the group to which water serving as the solvent was administered"}, {"measurement": "change in brown adipose tissue sympathetic nerve activity (BAT-SNA) versus water control", "setting": "[2]; [6]", "result": "higher than the BAT-SNA value of the group to which water serving as the solvent was administered"}, {"measurement": "change in adrenal sympathetic nerve activity (ASNA) versus water control", "setting": "[3]; 0.015 mg/0.5 mL/300 g of body weight", "result": "higher than the ASNA value of the group to which water serving as the solvent was administered"}, {"measurement": "change in adrenal sympathetic nerve activity (ASNA) versus water control", "setting": "[3]; [7]", "result": "higher than the ASNA value of the group to which water serving as the solvent was administered"}, {"measurement": "change in adrenal sympathetic nerve activity (ASNA) versus water control", "setting": "[3]; [5]", "result": "higher than the ASNA value of the group to which water serving as the solvent was administered"}, {"measurement": "change in adrenal sympathetic nerve activity (ASNA) versus water control", "setting": "[3]; [6]", "result": "higher than the ASNA value of the group to which water serving as the solvent was administered"}, {"measurement": "change in hepatic sympathetic nerve activity (Hepatic-SNA) versus water control", "setting": "[4]; [7]", "result": "higher than the Hepatic-SNA value of the group to which water serving as the solvent was administered"}, {"measurement": "change in hepatic sympathetic nerve activity (Hepatic-SNA) versus water control", "setting": "[4]; [5]", "result": "higher than the Hepatic-SNA value of the group to which water serving as the solvent was administered"}, {"measurement": "change in hepatic sympathetic nerve activity (Hepatic-SNA) versus water control", "setting": "[4]; [6]", "result": "higher than the Hepatic-SNA value of the group to which water serving as the solvent was administered"}]}
